The record followed here is ChEMBL document CHEMBL3763013, “Prospective of curcumin, a pleiotropic signalling molecule from Curcuma longa in the treatment of Glioblastoma” (Eur J Med Chem, 2016).

In data set [1] the test system is U138MG. Briefly: Inhibition of PI3K in human U138MG cells assessed as decrease in phosphorylated AKT level by western blot analysis. It counts as cell-based. (Immunoblotting shows a protein as a band on a membrane.)
Data set [2] relates to Plasma. Kind of data set: Plasma concentration in human at 2 g, po. Format: ADME.
The nature of data set [3]: Drug uptake in human serum at 4 g/day, po administered for 3 months. The following applies: read-out: Drug uptake. It counts as ADME, organism-based.
Data set [4] can be described thus: Drug uptake in human serum at 6 g/day, po administered for 3 months. It counts as ADME, organism-based. Particulars: read-out: Drug uptake.
Data set [5] can be described thus: Drug uptake in human serum at 8 g/day, po administered for 3 months. Format: ADME, organism-based. Particulars: read-out: Drug uptake.
Data set [6] is described as follows: Cmax in human at 10 g, po administered as single dose. It counts as ADME, organism-based. Also noted: dose 10 g, route oral. Particulars: in vivo.
Data set [7] is described as follows: Cmax in human at 12 g, po administered as single dose. It counts as ADME, organism-based. Details: dose 12 g, route oral. Particulars: in vivo.
Data set [8] is described as follows: Tmax in human at 10 g, po administered as single dose. Format: ADME, organism-based. The following applies: in vivo.
Data set [9] is described as follows: Half life in human at 10 g, po administered as single dose. Particulars: in vivo. It counts as ADME, organism-based.
Data set [10] relates to Homo sapiens. Kind of data set: Drug metabolism in human assessed as ratio of glucuronide to sulfate at 10 and 12 g, po administered as single dose. It counts as ADME, organism-based. The following applies: in vivo.
A short description of data set [11]: Plasma concentration in human at 3.6 g/day, po measured after 0.5 and 1 hr. It counts as ADME, organism-based.
The nature of data set [12]: Drug excretion in human urine at 3.6 g/day, po. Format: ADME, tissue-based.
Data set [13] in a line: Drug uptake in human normal colorectal tissue at 3.6 g/day, po. Format: ADME.
A short description of data set [14]: Drug uptake in human malignant colorectal tissue at 3.6 g/day, po. Format: ADME.
Data set [15] is described as follows: Tmax in human at 12 g, po administered as single dose. Particulars: in vivo. Format: ADME, organism-based.
Data set [16] is described as follows: Half life in human at 12 g, po administered as single dose. The following applies: in vivo. It counts as ADME, organism-based.
Data set [17] concerns Plasma. Kind of data set: Drug metabolism in human plasma assessed as compound glucuronide conjugate at 3.6 g/day, po measured after 0.5 and 1 hr. Format: ADME, organism-based.
For data set [18], the system named is Plasma. Kind of data set: Drug metabolism in human plasma assessed as compound sulfate conjugate at 3.6 g/day, po measured after 0.5 and 1 hr. Format: ADME, organism-based.
Data set [19] is described as follows: Drug metabolism in human urine assessed as compound glucuronide conjugate at 3.6 g/day, po measured after 0.5 and 1 hr. Format: ADME, organism-based. The following applies: in vivo.
The nature of data set [20]: Drug metabolism in human urine assessed as compound sulfate conjugate at 3.6 g/day, po measured after 0.5 and 1 hr. It counts as ADME, organism-based. The following applies: in vivo.

As usually defined, the inhibition is the change of the read-out against control, counted positive when it falls. Usually Cmax stands for the maximum level reached in the sampled fluid or tissue. One may read the Tmax as the time from dosing to the highest level. As usually defined, the half-life is the time in which the quantity being followed falls by half. `COc1cc(/C=C/C(=O)CC(=O)/C=C/c2ccc(O)c(OC)c2)ccc1O` [CURCUMIN]: the inhibition in data set [1] amounted to 80%. Also, in data set [2], the Cp stood at 10 ng/mL. For the same compound, the concentration at 3 months worked out at 510 nM in data set [3], 630 nM in data set [4] and 1770 nM in data set [5]. In addition, the Cmax amounted to 2300 ng/mL in data set [6] and 1730 ng/mL in [7]. The Tmax in data set [8] and in data set [15] was 3.29 h in each case. The half-life in [9] and in data set [16] was 6.77 h each time. Further, in data set [10], the Ratio is reported as 1.92. The concentration at 1 h in data set [11] is 11.1 nM. In data set [12], this compound returned a Drug excretion of 0.1 µmol/L. Also, the results for the Drug uptake in data set [13] and in data set [14] were 12.7 nmol/g and 7.7 nmol/g, respectively. The Drug metabolism in data set [17] is given as 15.8 nmol/L; in data set [18], 8.9 nmol/L; in [19], 210 nmol/L; in data set [20], 19 nmol/L.
